Assay in all cases: Glasshouse assay for herbicidal activity (pre- and post-emergence), percentage phytotoxicity
Holding throughout (assay type): in vivo

Assay [1] relates to Alopecurus myosuroides (ALOMY). The conditions noted are these: Alopecurus myosuroides. In short, it runs like this: (§1)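 Potted test plants in standard soil received the compound pre-emergence (day 1) or post-emergence (about day 12). Evaluation: visual damage score from 0% (none) to 100% (total), 15 days after application post-emergence, 20 days pre-emergence.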
The subject of a further assay is Avena fatua (AVEFA). The conditions noted are these: Avena fatua. The method in brief:
as §1

For assay [2], the system named is Echinochloa crus-galli (ECHCG). As to conditions: Echinochloa crus-galli. In short, it runs like this: as §1
A further assay relates to Lolium perenne (LOLPE). The conditions noted are these: Lolium perenne. The method in brief:
as §1

Setting [3] is: post-emergence, 360 h, Rate 250 g/ha, post-emergence, visual assessment 15 DAA, 100%=total damage, 0%=no damage, read-out: Post-emergence herbicidal activity (percentage phytotoxicity) ALOMY POST.
[4] abbreviates: pre-emergence, 480 h, Rate 250 g/ha, pre-emergence, visual assessment 20 DAA, 100%=total damage, 0%=no damage, read-out: Pre-emergence herbicidal activity (percentage phytotoxicity) ALOMY PRE.
Where [5] appears, read: post-emergence, 360 h, Rate 250 g/ha, post-emergence, visual assessment 15 DAA, 100%=total damage, 0%=no damage, read-out: Post-emergence herbicidal activity (percentage phytotoxicity) AVEFA POST.
Setting [6] is: pre-emergence, 480 h, Rate 250 g/ha, pre-emergence, visual assessment 20 DAA, 100%=total damage, 0%=no damage, read-out: Pre-emergence herbicidal activity (percentage phytotoxicity) AVEFA PRE.
Setting [7] is: post-emergence, 360 h, Rate 250 g/ha, post-emergence, visual assessment 15 DAA, 100%=total damage, 0%=no damage, read-out: Post-emergence herbicidal activity (percentage phytotoxicity) ECHCG POST.
[8] abbreviates: pre-emergence, 480 h, Rate 250 g/ha, pre-emergence, visual assessment 20 DAA, 100%=total damage, 0%=no damage, read-out: Pre-emergence herbicidal activity (percentage phytotoxicity) ECHCG PRE.
Where [9] appears, read: post-emergence, 360 h, Rate 250 g/ha, post-emergence, visual assessment 15 DAA, 100%=total damage, 0%=no damage, read-out: Post-emergence herbicidal activity (percentage phytotoxicity) LOLPE POST.
Setting [10] is: pre-emergence, 480 h, Rate 250 g/ha, pre-emergence, visual assessment 20 DAA, 100%=total damage, 0%=no damage, read-out: Pre-emergence herbicidal activity (percentage phytotoxicity) LOLPE PRE.
Setting [11] is: post-emergence, 360 h, POST-emergence, rate 250 g/ha, visual score 15 DAA (100%=total damage, 0%=no damage), read-out: Post-emergence herbicidal activity (percentage phytotoxicity) ALOMY POST.
[12] abbreviates: pre-emergence, 480 h, PRE-emergence, rate 250 g/ha, visual score 20 DAA (100%=total damage, 0%=no damage), read-out: Pre-emergence herbicidal activity (percentage phytotoxicity) ALOMY PRE.
Setting [13] is: post-emergence, 360 h, POST-emergence, rate 250 g/ha, visual score 15 DAA (100%=total damage, 0%=no damage), read-out: Post-emergence herbicidal activity (percentage phytotoxicity) AVEFA POST.
Where [14] appears, read: pre-emergence, 480 h, PRE-emergence, rate 250 g/ha, visual score 20 DAA (100%=total damage, 0%=no damage), read-out: Pre-emergence herbicidal activity (percentage phytotoxicity) AVEFA PRE.
The mark [15] stands for this setting: post-emergence, 360 h, POST-emergence, rate 250 g/ha, visual score 15 DAA (100%=total damage, 0%=no damage), read-out: Post-emergence herbicidal activity (percentage phytotoxicity) ECHCG POST.
Where [16] appears, read: pre-emergence, 480 h, PRE-emergence, rate 250 g/ha, visual score 20 DAA (100%=total damage, 0%=no damage), read-out: Pre-emergence herbicidal activity (percentage phytotoxicity) ECHCG PRE.
The mark [17] stands for this setting: post-emergence, 360 h, POST-emergence, rate 250 g/ha, visual score 15 DAA (100%=total damage, 0%=no damage), read-out: Post-emergence herbicidal activity (percentage phytotoxicity) LOLPE POST.
Setting [18] is: pre-emergence, 480 h, PRE-emergence, rate 250 g/ha, visual score 20 DAA (100%=total damage, 0%=no damage), read-out: Pre-emergence herbicidal activity (percentage phytotoxicity) LOLPE PRE.

Like-named read-outs stand apart in the source and are kept apart here.

Take `Cc1cc(-c2ccc(F)cn2)cc(C)c1C1C(=O)CC(CC(=O)NCC2CC2)C1=O` (stereo not shown) [Compound B386]: the pest or weed control at 250 g/ha in assay [1] (setting [3]) worked out at 100%; in assay [1] (setting [4]), 100%; in the assay on Avena fatua (AVEFA) (setting [5]), 100%; in the assay on Avena fatua (AVEFA) (setting [6]), 100%; in assay [2] (setting [7]) it was 40%; in assay [2] (setting [8]), 100%. Besides, the pest or weed control at 250 g/ha with Lolium perenne (LOLPE) (setting [9]) worked out at 90%; in the assay with Lolium perenne (LOLPE) (setting [10]) it was 100%.
With `CCc1cc(OCC(F)(F)F)cc(C)c1C1C(=O)CC(CC(=O)N(C)CC)C1=O` (stereo not shown) [Compound B220], the pest or weed control at 250 g/ha is 100% in assay [1] (setting [11]); 100% in assay [1] (setting [12]); 100% with Avena fatua (AVEFA) (setting [13]); 90% in the assay with Avena fatua (AVEFA) (setting [14]); 100% in assay [2] (setting [15]); 100% in assay [2] (setting [16]). The pest or weed control at 250 g/ha in the assay on Lolium perenne (LOLPE) (setting [17]) and in the assay on Lolium perenne (LOLPE) (setting [18]) was 100% in each case.
On to `Cc1cc(-c2ncc(Cl)cn2)cc(C)c1C1C(=O)CC(CC(=O)NC(C)C)C1=O` (stereo not shown) [Compound B340], for which the pest or weed control at 250 g/ha (in assay [1] (setting [3]); in assay [1] (setting [4]); in the assay on Avena fatua (AVEFA) (setting [5]); in the assay on Avena fatua (AVEFA) (setting [6]); in assay [2] (setting [7]); in assay [2] (setting [8])) was 100% throughout. Further, the pest or weed control at 250 g/ha with Lolium perenne (LOLPE) (setting [9]) and with Lolium perenne (LOLPE) (setting [10]) was 100% throughout.
With `Cc1cc(-c2ncc(F)cn2)cc(C)c1C1C(=O)CC(CC(=O)N2CCOCC2)C1=O` (stereo not shown) [Compound B276], the pest or weed control at 250 g/ha turned out to be 90% in assay [1] (setting [11]); 100% in assay [1] (setting [12]); 90% with Avena fatua (AVEFA) (setting [13]); 80% in the assay with Avena fatua (AVEFA) (setting [14]); 100% in assay [2] (setting [15]); 100% in assay [2] (setting [16]). Further, the pest or weed control at 250 g/ha is 100% in the assay with Lolium perenne (LOLPE) (setting [17]) and 90% in the assay on Lolium perenne (LOLPE) (setting [18]).
As to `CCc1cc(OCC(F)(F)F)cc(C)c1C1C(=O)CC(CC(=O)NCc2cccc(Cl)c2)C1=O` (stereo not shown) [Compound B261], the pest or weed control at 250 g/ha in assay [1] (setting [11]) worked out at 100%; in assay [1] (setting [12]) it was 80%; with Avena fatua (AVEFA) (setting [13]) it was 100%; with Avena fatua (AVEFA) (setting [14]), 80%; in assay [2] (setting [15]) it was 100%; in assay [2] (setting [16]), 90%. Further, the pest or weed control at 250 g/ha in the assay on Lolium perenne (LOLPE) (setting [17]) is 100%; in the assay on Lolium perenne (LOLPE) (setting [18]), 90%.
Take `Cc1cc(C)c(C2C(=O)CC(CC(=O)N3CCC(C)CC3)C2=O)c(C)c1` (stereo not shown) [Compound A172]: the pest or weed control at 250 g/ha in assay [1] (post-emergence, 360 h, post-emergence, 250 g/ha, 15 DAA, visual score (100%=total damage; 0%=no damage), read-out: ALOMY POST herbicidal activity (percentage phytotoxicity)) was found to be 80%; in assay [1] (pre-emergence, 480 h, pre-emergence, 250 g/ha, 20 DAA, visual score (100%=total damage; 0%=no damage), read-out: ALOMY PRE herbicidal activity (percentage phytotoxicity)) it was 80%; in the assay with Avena fatua (AVEFA) (post-emergence, 360 h, post-emergence, 250 g/ha, 15 DAA, visual score (100%=total damage; 0%=no damage), read-out: AVEFA POST herbicidal activity (percentage phytotoxicity)), 70%; in the assay with Avena fatua (AVEFA) (pre-emergence, 480 h, pre-emergence, 250 g/ha, 20 DAA, visual score (100%=total damage; 0%=no damage), read-out: AVEFA PRE herbicidal activity (percentage phytotoxicity)), 40%; in assay [2] (post-emergence, 360 h, post-emergence, 250 g/ha, 15 DAA, visual score (100%=total damage; 0%=no damage), read-out: ECHCG POST herbicidal activity (percentage phytotoxicity)), 70%; in assay [2] (pre-emergence, 480 h, pre-emergence, 250 g/ha, 20 DAA, visual score (100%=total damage; 0%=no damage), read-out: ECHCG PRE herbicidal activity (percentage phytotoxicity)), 80%. The pest or weed control at 250 g/ha in the assay with Lolium perenne (LOLPE) (post-emergence, 360 h, post-emergence, 250 g/ha, 15 DAA, visual score (100%=total damage; 0%=no damage), read-out: LOLPE POST herbicidal activity (percentage phytotoxicity)) stood at 60%; in the assay on Lolium perenne (LOLPE) (pre-emergence, 480 h, pre-emergence, 250 g/ha, 20 DAA, visual score (100%=total damage; 0%=no damage), read-out: LOLPE PRE herbicidal activity (percentage phytotoxicity)) it was 90%.
Regarding `Cc1cc(-c2ncc(F)cn2)cc(C)c1C1C(=O)CC(CC(=O)NCc2ccccc2)C1=O` (stereo not shown) [Compound B263], the pest or weed control at 250 g/ha in assay [1] (setting [11]) is 100%; in assay [1] (setting [12]) it was 90%; in the assay with Avena fatua (AVEFA) (setting [13]), 100%; in the assay with Avena fatua (AVEFA) (setting [14]) it was 80%; in assay [2] (setting [15]) it was 100%; in assay [2] (setting [16]), 100%. Also, the pest or weed control at 250 g/ha with Lolium perenne (LOLPE) (setting [17]) was 100%; with Lolium perenne (LOLPE) (setting [18]), 80%.
`Cc1cc(-c2ncc(F)cc2Cl)cc(C)c1C1C(=O)CC(CC(=O)NCc2cccs2)C1=O` (stereo not shown) [Compound A150]: the pest or weed control at 250 g/ha is 70% in assay [1] (post-emergence, 360 h, Rate 250 g/ha, post-emergence, assessed visually 15 DAA, 100%=total damage, 0%=no damage, read-out: Post-emergence herbicidal activity (percentage phytotoxicity) ALOMY POST); 70% in assay [1] (pre-emergence, 480 h, Rate 250 g/ha, pre-emergence, assessed visually 20 DAA, 100%=total damage, 0%=no damage, read-out: Pre-emergence herbicidal activity (percentage phytotoxicity) ALOMY PRE); 90% in the assay on Avena fatua (AVEFA) (post-emergence, 360 h, Rate 250 g/ha, post-emergence, assessed visually 15 DAA, 100%=total damage, 0%=no damage, read-out: Post-emergence herbicidal activity (percentage phytotoxicity) AVEFA POST); 50% in the assay on Avena fatua (AVEFA) (pre-emergence, 480 h, Rate 250 g/ha, pre-emergence, assessed visually 20 DAA, 100%=total damage, 0%=no damage, read-out: Pre-emergence herbicidal activity (percentage phytotoxicity) AVEFA PRE); 90% in assay [2] (post-emergence, 360 h, Rate 250 g/ha, post-emergence, assessed visually 15 DAA, 100%=total damage, 0%=no damage, read-out: Post-emergence herbicidal activity (percentage phytotoxicity) ECHCG POST); 90% in assay [2] (pre-emergence, 480 h, Rate 250 g/ha, pre-emergence, assessed visually 20 DAA, 100%=total damage, 0%=no damage, read-out: Pre-emergence herbicidal activity (percentage phytotoxicity) ECHCG PRE). Besides, the pest or weed control at 250 g/ha with Lolium perenne (LOLPE) (post-emergence, 360 h, Rate 250 g/ha, post-emergence, assessed visually 15 DAA, 100%=total damage, 0%=no damage, read-out: Post-emergence herbicidal activity (percentage phytotoxicity) LOLPE POST) is 70%; in the assay on Lolium perenne (LOLPE) (pre-emergence, 480 h, Rate 250 g/ha, pre-emergence, assessed visually 20 DAA, 100%=total damage, 0%=no damage, read-out: Pre-emergence herbicidal activity (percentage phytotoxicity) LOLPE PRE) it was 80%.

The values above are taken from patent US10206394B2, “Herbicidal compounds” (Syngenta Participations AG, priority 2014, dated 2019).
